# Measured values taken from PMC6001238, “Iterative Chemical Engineering of Vancomycin Leads to Novel Vancomycin Analogs With a High in Vitro Therapeutic Index” (Frontiers in Microbiology, 2018).
# Read-outs that look alike come from different tables or passages of the source.
# Columns and labels:
# E. faecalis VRE 6 = test: MIC, broth microdilution, vancomycin-resistant E. faecalis VRE 6 (VanA); assay type: cell-based, Enterococcus faecalis
# In short: (§1)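 Controls (ultrapure water; broth not inoculated) were included throughout CLSI-compliant broth microdilution. One condition supplemented analogue or comparator with 10 μM vancomycin, final level.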
# MRSA = test: Minimum bactericidal concentration against MRSA; assay type: cell-based, Staphylococcus aureus
# Protocol: Plates were incubated overnight at 37°C and colony growth was inspected.
# MRSA KS6 = test: MIC, broth microdilution, MRSA KS6; assay type: cell-based, Staphylococcus aureus
# In short: as §1
# [1] = system: human cervix carcinoma (HeLa) cells; test: Cytostatic activity, HeLa cell proliferation; assay type: cell-based; conditions: mean ± SD of three experiments; highest concentration tested 250 µM; 4 days; read-out: Toxicity (IC50) HeLa
# In short: (§2)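 Coulter counter cell counts after 37°C culture with compound; IC50 = concentration giving 50% growth inhibition vs negative control. Incubation: L1210 2 d, CEM 3 d, HeLa 4 d. Suspension density before mixing with an equal volume of dilution: 300,000–500,000 cells/mL.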
# VE 157 (VanB) = test: MIC, VanB-type VRE strain VE 157; assay type: cell-based, Enterococcus; conditions: VE 157, VanB; read-out: MIC
# Protocol: (§3) The minimum inhibitory concentration (MIC) was determined using the broth microdilution method according to the antimicrobial susceptibility testing standards of the clinical and laboratory standards institute ([Clinical and Laboratory Standards Institute [CLSI], 2012]). Ultrapure water and non-inoculated broth were used as controls. In one case, a final concentration of 10 μM vancomycin was included with the vancomycin analog or control antibiotic.
# [2] = system: human T-lymphocyte (CEM) cells; test: Cytostatic activity, CEM cell proliferation; assay type: cell-based; conditions: mean ± SD of three experiments; highest concentration tested 250 µM; 3 days; read-out: Toxicity (IC50) CEM
# In short: as §2
# [3] = system: L1210, CEM and HeLa cell lines; test: Cytostatic activity, average or summary over L1210, CEM and HeLa; assay type: cell-based
# In short: as §2
# VE 149 (VanB) = test: MIC, VanB-type VRE strain VE 149; assay type: cell-based, Enterococcus; conditions: VE 149, VanB; read-out: MIC
# Protocol: as §3
# VE 82 (VanC1) = test: MIC, VanC1-type VRE strain VE 82; assay type: cell-based, Enterococcus gallinarum; conditions: VE 82, VanC1; read-out: MIC
# Protocol: as §3
# VE 150 (VanB) = test: MIC, VanB-type VRE strain VE 150; assay type: cell-based, Enterococcus; conditions: VE 150, VanB; read-out: MIC
# Protocol: as §3
# [4] = system: Clostridium difficile ATJ ribotype 014/20; test: MIC, plate drop assay, C. difficile ATJ ribotype 014/20; assay type: cell-based; conditions: C. difficile ATJ ribotype 014/20
# In short: (§4)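 Lawns of each strain were made in soft BHI agar (0.4%) supplemented with CaCl2⋅2H2O and MgCl2⋅6H2O. Twofold compound dilutions (10 μL) were spotted, air-dried and incubated overnight at 37°C anaerobically; MIC read as cleared spots, in triplicate with water as negative control.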
# MRSA KS89 = test: MIC, broth microdilution, MRSA KS89; assay type: cell-based, Staphylococcus aureus
# In short: as §1
# E. faecalis VRE 53 = test: MIC, broth microdilution, vancomycin-resistant E. faecalis VRE 53 (VanA); assay type: cell-based, Enterococcus faecalis
# In short: as §1
# E. faecalis VSE 1 = test: MIC, broth microdilution, vancomycin-sensitive E. faecalis (VSE 1); assay type: cell-based, Enterococcus faecalis
# In short: as §1
# S. aureus VISA/HIP5827 = test: MIC, broth microdilution, vancomycin-intermediate S. aureus VISA HIP5827; assay type: cell-based, Staphylococcus aureus; conditions: VISA/HIP5827; ratio of MIC of vancomycin and MIC of analogue
# In short: as §1
# 33 clinical VRE isolates = test: MIC against a set of 33 clinical VRE isolates (range, MIC50, TI); assay type: cell-based, Enterococcus faecalis
# Protocol: as §3
# E. faecalis VRE 29 = test: MIC, broth microdilution, vancomycin-resistant E. faecalis VRE 29 (VanA); assay type: cell-based, Enterococcus faecalis
# In short: as §1
# MRSA KS2 = test: MIC, broth microdilution, MRSA KS2; assay type: cell-based, Staphylococcus aureus
# In short: as §1
# S. aureus VRSA = test: MIC, broth microdilution, vancomycin-resistant S. aureus (VRSA); assay type: cell-based, Staphylococcus aureus
# In short: as §1
# E. faecalis VRE 37 = test: MIC, broth microdilution, vancomycin-resistant E. faecalis VRE 37 (VanA); assay type: cell-based, Enterococcus faecalis
# In short: as §1
# [5] = system: S. aureus VSSA (ATCC 6538); test: MIC, broth microdilution, vancomycin-sensitive S. aureus (VSSA/MSSA, ATCC 6538); assay type: cell-based, Staphylococcus aureus
# In short: as §1
# VE 152 (VanB) = test: MIC, VanB-type VRE strain VE 152; assay type: cell-based, Enterococcus; conditions: VE 152, VanB; read-out: MIC
# Protocol: as §3
# [6] = system: Murine leukemia (L1210) cells; test: Cytostatic activity, L1210 cell proliferation; assay type: cell-based; conditions: mean ± SD of three experiments; highest concentration tested 250 µM; 2 days; read-out: Toxicity (IC50) L1210
# In short: as §2
# [7] = system: Clostridium difficile AIU ribotype 027; test: MIC, plate drop assay, C. difficile AIU ribotype 027; assay type: cell-based; conditions: C. difficile AIU ribotype 027
# In short: as §4
# MRSA KS1 = test: MIC, broth microdilution, MRSA KS1; assay type: cell-based, Staphylococcus aureus
# In short: as §1
# VE 148 (VanB) = test: MIC, VanB-type VRE strain VE 148; assay type: cell-based, Enterococcus; conditions: VE 148, VanB; read-out: MIC
# Protocol: as §3
# [8] = system: 24 clinical MRSA isolates; test: MIC against a set of 24 clinical MRSA isolates (range, MIC50, TI); assay type: cell-based, Staphylococcus aureus
# Protocol: as §3
compound,measurement,setting,value
CNC(CC(C)C)C(=O)NC1C(=O)NC(CC(N)=O)C(=O)NC2C(=O)NC3C(=O)NC(C(=O)NC(C(=O)NCCCNC(=O)c4cc5ccccc5[nH]4)c4cc(O)cc(O)c4-c4cc3ccc4O)C(O)c3ccc(c(Cl)c3)Oc3cc2cc(c3OC2OC(CO)C(O)C(O)C2OC2CC(C)(N)C(O)C(C)O2)Oc2ccc(cc2Cl)C1O (stereo not shown) [Vanc-24],MIC,"E. faecalis VRE 6; Enterococcus faecalis VRE 6 (vancomycin-resistant), read-out: MIC",0.78 µM
same,MIC-fold improvement vs. vancomycin,"E. faecalis VRE 6; VRE 6, ratio of MIC of vancomycin and MIC of analogue",256
same,MBC relative to MIC,MRSA,MBC equaling their MIC values
same,MIC-fold improvement vs. vancomycin,"MRSA KS6; MRSA KS6, ratio of MIC of vancomycin and MIC of analogue",2
same,MIC,"MRSA KS6; Staphylococcus aureus MRSA KS6, read-out: MIC",0.39 µM
same,IC50,[1],83 ± 9 µM
same,MIC,VE 157 (VanB),1.56 µM
same,IC50,[2],248 ± 3 µM
same,IC50,"[3]; average IC50 used for TI in Table S5, >250 entered as 250, read-out: IC50",165 µM
same,IC50,"[3]; average of L1210, CEM and HeLa, read-out: Toxicity (IC50) Average",165 µM
same,MIC,VE 149 (VanB),1.56 µM
same,MIC,VE 82 (VanC1),0.39 µM
same,MIC,VE 150 (VanB),1.56 µM
same,MIC-fold improvement vs. vancomycin,[4],11
same,MIC-fold improvement vs. vancomycin,"MRSA KS89; MRSA KS8, ratio of MIC of vancomycin and MIC of analogue",2
same,MIC,"MRSA KS89; Staphylococcus aureus MRSA KS8, read-out: MIC",0.39 µM
same,MIC,"E. faecalis VRE 53; Enterococcus faecalis VRE 53 (vancomycin-resistant), read-out: MIC",25 µM
same,MIC-fold improvement vs. vancomycin,"E. faecalis VRE 53; VRE 53, ratio of MIC of vancomycin and MIC of analogue",16
same,MIC,"E. faecalis VSE 1; Enterococcus faecalis VSE 1 (vancomycin-sensitive), read-out: MIC",0.20 µM
same,MIC-fold improvement vs. vancomycin,"E. faecalis VSE 1; VSE 1, ratio of MIC of vancomycin and MIC of analogue",8
same,MIC-fold improvement vs. vancomycin,S. aureus VISA/HIP5827,32
same,MIC Range,33 clinical VRE isolates; 33 clinical VRE isolates,3.13 to 50 µM
same,TI (IC50/MIC50),"33 clinical VRE isolates; in vitro therapeutic index, VRE",26
same,MIC50,"33 clinical VRE isolates; median MIC, 33 clinical VRE isolates, read-out: MIC50",6.25 µM
same,MIC,"E. faecalis VRE 29; Enterococcus faecalis VRE 29 (vancomycin-resistant), read-out: MIC",12.5 µM
same,MIC-fold improvement vs. vancomycin,"E. faecalis VRE 29; VRE 29, ratio of MIC of vancomycin and MIC of analogue",32
same,MIC-fold improvement vs. vancomycin,"MRSA KS2; MRSA KS2, ratio of MIC of vancomycin and MIC of analogue",4
same,MIC,"MRSA KS2; Staphylococcus aureus MRSA KS2, read-out: MIC",0.20 µM
same,MIC,"S. aureus VRSA; Staphylococcus aureus VRSA, read-out: MIC",1.56 µM
same,MIC-fold improvement vs. vancomycin,"S. aureus VRSA; VRSA, ratio of MIC of vancomycin and MIC of analogue",64
same,MIC,"E. faecalis VRE 37; Enterococcus faecalis VRE 37 (vancomycin-resistant), read-out: MIC",6.25 µM
same,MIC-fold improvement vs. vancomycin,"E. faecalis VRE 37; VRE 37, ratio of MIC of vancomycin and MIC of analogue",64
same,MIC,"[5]; Staphylococcus aureus VSSA, read-out: MIC",0.20 µM
same,MIC-fold improvement vs. vancomycin,"[5]; VSSA, ratio of MIC of vancomycin and MIC of analogue",4
same,MIC,VE 152 (VanB),1.56 µM
same,IC50,[6],164 ± 20 µM
same,MIC-fold improvement vs. vancomycin,[7],14
same,MIC-fold improvement vs. vancomycin,"MRSA KS1; MRSA KS1, ratio of MIC of vancomycin and MIC of analogue",2
same,MIC,"MRSA KS1; Staphylococcus aureus MRSA KS1, read-out: MIC",0.39 µM
same,MIC,VE 148 (VanB),3.13 µM
same,MIC Range,[8]; 24 clinical MRSA isolates,0.10 to 0.78 µM
same,TI (IC50/MIC50),"[8]; in vitro therapeutic index, MRSA",825
same,MIC50,"[8]; median MIC, 24 clinical MRSA isolates, read-out: MIC50",0.20 µM
